How the values were obtained:
[1] = target: Tyrosine-protein kinase Fyn (Homo sapiens, UniProt P06241); assay: Dissociation constant for binding to SH2 domain of Fyn protein kinase
[2] = target: Growth factor receptor-bound protein 2 (Homo sapiens, UniProt P62993); assay: Dissociation constant for binding to SH2 domain of Growth factor receptor bound protein 2, Grb2
[3] = Dissociation constant for binding to SH2 domain of Phosphatidylinositol 3-kinase p85 subunit
[4] = Dissociation constant for binding to SH2 domain of Phospholipase C gamma
[5] = target: Tyrosine-protein kinase Lck (Homo sapiens, UniProt P06239); assay: Dissociation constant for binding to SH2 domain of p56 lck tyrosine kinase
Tyrosine-protein kinase Lck, sequence (P06239 whole entry, the tested form may be a part): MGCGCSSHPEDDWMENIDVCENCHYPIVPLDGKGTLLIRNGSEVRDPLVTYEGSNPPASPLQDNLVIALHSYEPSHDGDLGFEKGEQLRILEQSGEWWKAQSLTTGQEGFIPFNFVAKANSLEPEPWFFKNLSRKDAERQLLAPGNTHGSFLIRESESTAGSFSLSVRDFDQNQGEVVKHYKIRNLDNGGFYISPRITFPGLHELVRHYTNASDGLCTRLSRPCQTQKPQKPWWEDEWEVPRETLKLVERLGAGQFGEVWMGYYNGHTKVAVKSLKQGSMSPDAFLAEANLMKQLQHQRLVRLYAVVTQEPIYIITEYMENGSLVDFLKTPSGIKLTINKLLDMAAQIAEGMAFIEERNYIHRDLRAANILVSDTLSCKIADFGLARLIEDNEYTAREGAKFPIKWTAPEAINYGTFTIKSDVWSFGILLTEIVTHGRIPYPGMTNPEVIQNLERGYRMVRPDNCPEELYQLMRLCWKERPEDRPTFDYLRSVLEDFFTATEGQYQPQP

Tyrosine-protein kinase Fyn, sequence (P06241 whole entry, the tested form may be a part): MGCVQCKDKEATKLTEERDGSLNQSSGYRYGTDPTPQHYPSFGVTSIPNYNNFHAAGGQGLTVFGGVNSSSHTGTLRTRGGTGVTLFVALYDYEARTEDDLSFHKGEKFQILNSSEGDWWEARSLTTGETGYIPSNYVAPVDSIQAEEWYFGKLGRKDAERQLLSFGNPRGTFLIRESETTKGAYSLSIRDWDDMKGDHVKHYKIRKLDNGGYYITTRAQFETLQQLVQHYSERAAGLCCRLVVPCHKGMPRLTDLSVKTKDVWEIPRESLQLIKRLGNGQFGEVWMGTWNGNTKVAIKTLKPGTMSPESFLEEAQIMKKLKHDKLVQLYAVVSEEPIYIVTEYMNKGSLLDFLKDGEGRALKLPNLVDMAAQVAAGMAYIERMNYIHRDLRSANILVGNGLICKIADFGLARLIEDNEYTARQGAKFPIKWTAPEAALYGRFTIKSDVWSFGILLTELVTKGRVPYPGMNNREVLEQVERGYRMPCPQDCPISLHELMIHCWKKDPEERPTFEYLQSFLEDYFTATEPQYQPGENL
Growth factor receptor-bound protein 2, sequence (P62993 whole entry, the tested form may be a part): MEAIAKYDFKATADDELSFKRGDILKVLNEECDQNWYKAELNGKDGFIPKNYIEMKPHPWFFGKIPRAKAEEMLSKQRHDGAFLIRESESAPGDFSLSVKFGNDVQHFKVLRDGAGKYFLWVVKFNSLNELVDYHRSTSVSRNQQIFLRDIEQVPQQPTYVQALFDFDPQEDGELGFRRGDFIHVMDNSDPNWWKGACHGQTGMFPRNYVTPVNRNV

Structure (SMILES) | Kd [1] | Kd [2] | Kd [3] | Kd [4] | Kd [5]
O=C(O)Cc1cc(=O)oc2cc(O)ccc12 | 150 nM | 11300 nM | 9300 nM | 4900 nM | 35 nM
O=C(O)c1ccsc1 | 700 nM | – | – | – | 260 nM
O=C(O)c1cc(C(=O)O)cc(S(=O)(=O)O)c1 | 60 nM | – | – | – | 220 nM
COc1ccc2c(CC(=O)O)cc(=O)oc2c1 | – | – | – | – | 2500 nM
COc1cc(Br)c(C(=O)O)cc1OC | 500 nM | – | – | – | 240 nM
O=C(O)CNC(=O)c1ccc([N+](=O)[O-])cc1 | 240 nM | – | – | – | 290 nM

Source: ChEMBL document CHEMBL1132595, “Acquisition of high-affinity, SH2-targeted ligands via a spatially focused library” (J Med Chem, 1999)
